The values that follow come from paper PMC9967538, “Cytotoxic Effect of Phenylethanoid Glycosides Isolated from Plantago lanceolata L” (Life, 2023).

Like-named read-outs stand apart in the source and are kept apart here. Some results are limits rather than exact numbers.

Series [1] is described as follows: MTT cell proliferation assay, OVCAR-3. The following applies: human. It counts as cell-based, human.
The test system of series [2] is OVCAR-3 ovarian cancer cell line. In words: MTT cell proliferation assay, OVCAR-3. As to conditions: for IC50: Homo sapiens, MTT, estimation ± SE. Type of series: cell-based, human.
A short description of series [3]: MTT cell proliferation assay, MCF-7. Type of series: cell-based, human. The following applies: human.
Series [4] relates to MCF-7 breast adenocarcinoma cell line. In words: MTT cell proliferation assay, MCF-7. Type of series: cell-based, human. The following applies: for IC50: Homo sapiens, MCF7, MTT, estimation ± SE.
A short description of series [5]: MTT cell proliferation assay, MDA-MB-231. Type of series: cell-based, human. As to conditions: human.
The test system of series [6] is MDA-MB-231 breast adenocarcinoma cell line. Nature of the series: MTT cell proliferation assay, MDA-MB-231. The following applies: for IC50: Homo sapiens, MTT, estimation ± SE. Type of series: cell-based, human.
Series [7] is described as follows: MTT cell proliferation assay, MCF-12A. Type of series: cell-based, human. The following applies: human.
The subject of series [8] is MCF-12A nontumorigenic mammary epithelial cell line. In words: MTT cell proliferation assay, MCF-12A. Type of series: cell-based, human. The following applies: Homo sapiens, MCF-12A.
Series [9] is classed as cell-based. As to conditions: human.
For series [10], the system named is Caco-2 colorectal adenocarcinoma cell line. In words: MTT cell proliferation assay, Caco-2. It counts as cell-based. As to conditions: Homo sapiens, estimation ± SE.
A short description of series [11]: MTT cell proliferation assay, HepG2. It counts as cell-based, human. The following applies: human.
Series [12] has as its system HepG2 hepatocarcinoma cell line. Nature of the series: MTT cell proliferation assay, HepG2. It counts as cell-based, human. The following applies: Homo sapiens, MTT, estimation ± SE.
For series [13], the system named is lymphocytic leukemia cells P-388. Further details: method as in PMID 2380718. As to conditions: cited from earlier work.
Series [14] has as its system d R Lh-84 cells (rat liver cancer). Further details: method as in PMID 8593444. The following applies: cited from earlier work.
The test system of series [15] is HeLa (human epithelial carcinoma). The arrangement: method as in PMID 8593444. As to conditions: cited from earlier work.
The subject of series [16] is S-180 (sarcoma). Further details: method as in PMID 8593444. The following applies: cited from earlier work.
For series [17], the system named is P-388/D1 (mouse lymphoid tumor). Further details: method as in PMID 8593444. As to conditions: cited from earlier work.
The test system of series [18] is HL-60 promyelocytic leukemia cells. Further details: method as in PMID 9477175. The following applies: HL-60 cell death; cited from earlier work.
The test system of series [19] is protein kinase C (PKC). The following applies: cited from earlier work.
The subject of series [20] is MCF-7 breast cancer cells. The arrangement: method as in PMID 34719192. The following applies: cell counting kit 8, cited from earlier work.
The subject of series [21] is MDA-MB 231 cells. The arrangement: method as in PMID 34719192. As to conditions: cell counting kit 8, cited from earlier work.
Series [22] relates to pre-senescent normal human diploid fibroblasts. Further details: method as in PMID 29505920. As to conditions: 3-week treatment; cited from earlier work.
Series [23] deals with glioblastoma cell line T98G. Further details: method as in PMID 36551708. As to conditions: cited from earlier work.
For series [24], the system named is C6 rat glioblastoma cell line. The arrangement: method as in PMID 30664150. The following applies: C6 cells, administered separately, cited from earlier work.

On to `C[C@@H]1O[C@@H](O[C@@H]2[C@@H](O)[C@H](OCCc3ccc(O)c(O)c3)O[C@H](CO)[C@H]2OC(=O)/C=C/c2ccc(O)c(O)c2)[C@H](O)[C@H](O)[C@H]1O` [Acteoside], for which the viability at 200 µM in series [1], in [3], in [5], in series [9] and in series [11] was not above 30% throughout. Further, the IC50 in series [2] (OVCAR-3, 24 h) was 314 ± 3.52 µM; in series [2] (OVCAR-3, 48 h), 232 ± 5.08 µM; in series [2] (OVCAR-3, 72 h), 163 ± 3.41 µM; in series [4] (MCF-7, 24 h) it was 219.1 ± 1.4 µM; in series [4] (MCF-7, 48 h), 154 ± 2.71 µM; in series [4] (MCF-7, 72 h) it was 113 ± 2.81 µM. In addition, the IC50 was 312 ± 3.28 µM in [6] (MDA-MB-231, 24 h); 245 ± 4.96 µM in series [6] (MDA-MB-231, 48 h); 200 ± 2.45 µM in series [6] (MDA-MB-231, 72 h); 362.3 ± 1.86 µM in series [8] (24 h, MTT, estimation ± SE, read-out: IC50); 347 ± 3.67 µM in series [8] (48 h, MTT, estimation ± SE, read-out: IC50); 326 ± 3.89 µM in [8] (72 h, MTT, estimation ± SE, read-out: IC50). Besides, the IC50 is approximately 300 µM in series [8] (time not stated, summary of Table 1, read-out: IC50 (potency against the MCF-12A line)); more than 500 µM in [10] (Caco-2, 24 h, values exceeding 500 μM determined with CompuSyn from dose-response curve estimation); 467 ± 8.71 µM in series [10] (Caco-2, 48 h); 280 ± 6.13 µM in series [10] (Caco-2, 72 h); 261 ± 3.52 µM in [12] (HepG2, 24 h); 220 ± 2.65 µM in [12] (HepG2, 48 h). The IC50 was 173.8 ± 1.59 µM in [12] (HepG2, 72 h); 61.98 µg/mL in series [14]; 99.2 µM in series [14] (converted from µg/mL, read-out: IC50); more than 320 µM in [15] (HeLa (human epithelial carcinoma), first value listed, converted, read-out: IC50); more than 200 µg/mL in series [15] (HeLa (human epithelial carcinoma), first value listed); 12.5 µM in series [15] (HeLa cells, second value listed, converted, read-out: IC50). The IC50 in series [16] (S-180, converted from µg/mL, read-out: IC50) is 47.4 µM; in series [16] (S-180), 29.6 µg/mL; in [17] (P-388/D1, converted from µg/mL, read-out: IC50) it was 354 µM; in series [17] (P-388/D1) it was 221.0 µg/mL; in series [18] it was 26.7 µM; in series [20] (MCF-7, 24 h exposure) it was 0.127 µM. Besides, the IC50 in series [20] (MCF-7, 48 h exposure) is 0.217 µM; in series [20] (MCF-7, 72 h exposure), 0.283 µM; in series [21] (MDA-MB 231, 24 h exposure), 0.16 µM; in series [21] (MDA-MB 231, 48 h exposure), 0.258 µM; in series [21] (MDA-MB 231, 72 h exposure), 0.256 µM; in series [23] it was 85 µM. Also, the “toxic effect (in words)” value is on record as “highly toxic effect” in series [2] (OVCAR-3, 200 μM, after 24 h of treatment); “highly toxic effect” in series [4] (MCF-7, 200 μM, after 24 h of treatment); “highly toxic effect” in series [6] (MDA-MB-231, 200 μM, after 24 h of treatment). The compound also came in with a viability at 400 µM in [7] of less than 30%. Besides, the ED50 is 4.16 µM in series [13] (lymphocytic leukemia cells P-388, converted from µg/mL) and 2.6 µg/mL in [13] (lymphocytic leukemia cells P-388). Also, the “inhibition of protein kinase C (in words)” value in series [19] was “inhibitor”. Also, the “cytotoxic effect (in words)” value in series [22] is given as “no cytotoxic effect”. Besides, the cell viability in series [24] (50 µM) is given as approximately 80%.
In the case of `O=c1cc(-c2ccc(O)c(O)c2)oc2c([C@@H]3O[C@H](CO)[C@@H](O)[C@H](O)[C@H]3O)c(O)cc(O)c12` [orientin, reference compound], the concentration for half-maximal inhibition (IC50) in [23] was more than 100 µM.
`Cn1nnc2c(C(N)=O)ncn2c1=O` [temozolomide, reference compound]: in [24] (5 mM), the cell viability result is on record as “ca. 52%”.
